What was measured:
[1] = target: T1, human receptor (Homo sapiens, UniProt P15509+P32927); experiment: Activity for the human GM-CSF receptor
T1 sequence (P15509 23-400): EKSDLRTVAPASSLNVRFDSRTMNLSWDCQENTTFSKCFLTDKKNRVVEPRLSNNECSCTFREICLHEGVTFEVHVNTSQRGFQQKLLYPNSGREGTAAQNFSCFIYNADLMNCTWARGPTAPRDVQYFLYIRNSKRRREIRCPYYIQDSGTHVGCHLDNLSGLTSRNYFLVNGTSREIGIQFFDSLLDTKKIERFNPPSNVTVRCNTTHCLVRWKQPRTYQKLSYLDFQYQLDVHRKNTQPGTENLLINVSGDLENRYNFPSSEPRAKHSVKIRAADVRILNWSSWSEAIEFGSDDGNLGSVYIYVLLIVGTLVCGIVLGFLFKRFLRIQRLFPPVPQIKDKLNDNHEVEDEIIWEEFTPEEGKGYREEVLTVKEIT
T1 sequence (P32927 17-897): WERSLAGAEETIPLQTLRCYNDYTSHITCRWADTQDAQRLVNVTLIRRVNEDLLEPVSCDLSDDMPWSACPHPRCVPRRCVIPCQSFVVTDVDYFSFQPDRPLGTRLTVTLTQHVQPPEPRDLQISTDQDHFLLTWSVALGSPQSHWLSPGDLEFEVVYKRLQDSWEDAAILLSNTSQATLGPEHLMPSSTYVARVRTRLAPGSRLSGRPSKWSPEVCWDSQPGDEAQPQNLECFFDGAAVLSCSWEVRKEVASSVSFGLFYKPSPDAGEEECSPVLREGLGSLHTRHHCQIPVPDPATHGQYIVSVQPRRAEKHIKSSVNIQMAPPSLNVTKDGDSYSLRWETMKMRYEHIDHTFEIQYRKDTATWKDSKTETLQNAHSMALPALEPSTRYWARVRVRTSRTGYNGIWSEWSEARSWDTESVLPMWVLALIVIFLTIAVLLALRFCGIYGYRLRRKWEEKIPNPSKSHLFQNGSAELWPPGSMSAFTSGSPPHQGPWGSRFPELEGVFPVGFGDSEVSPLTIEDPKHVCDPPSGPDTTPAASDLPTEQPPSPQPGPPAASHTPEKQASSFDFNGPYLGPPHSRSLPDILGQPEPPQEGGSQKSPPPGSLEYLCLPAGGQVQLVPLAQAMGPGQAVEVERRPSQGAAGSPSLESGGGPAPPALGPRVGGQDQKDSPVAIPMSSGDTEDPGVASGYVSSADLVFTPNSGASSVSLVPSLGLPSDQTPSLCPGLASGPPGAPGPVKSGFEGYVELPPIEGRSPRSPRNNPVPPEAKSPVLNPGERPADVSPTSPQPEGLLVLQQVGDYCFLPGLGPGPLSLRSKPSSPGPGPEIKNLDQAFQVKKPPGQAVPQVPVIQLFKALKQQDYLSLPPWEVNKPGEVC

[2] = target: T2, mouse receptor (Mus musculus, UniProt P26955+Q00941); experiment: Activity for the mouse GM-CSF receptor
T2 sequence (Q00941 30-388): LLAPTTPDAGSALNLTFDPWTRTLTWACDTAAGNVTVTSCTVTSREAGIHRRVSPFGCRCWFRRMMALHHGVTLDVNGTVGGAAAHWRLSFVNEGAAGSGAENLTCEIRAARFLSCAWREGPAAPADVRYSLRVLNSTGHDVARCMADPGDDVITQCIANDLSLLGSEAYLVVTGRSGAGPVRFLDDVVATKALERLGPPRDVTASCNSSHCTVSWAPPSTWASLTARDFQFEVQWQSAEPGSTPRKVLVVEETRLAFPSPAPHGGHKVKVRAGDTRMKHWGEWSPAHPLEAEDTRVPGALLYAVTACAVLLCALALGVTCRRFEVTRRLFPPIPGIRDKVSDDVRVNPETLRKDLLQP
T2 sequence (P26955 23-896): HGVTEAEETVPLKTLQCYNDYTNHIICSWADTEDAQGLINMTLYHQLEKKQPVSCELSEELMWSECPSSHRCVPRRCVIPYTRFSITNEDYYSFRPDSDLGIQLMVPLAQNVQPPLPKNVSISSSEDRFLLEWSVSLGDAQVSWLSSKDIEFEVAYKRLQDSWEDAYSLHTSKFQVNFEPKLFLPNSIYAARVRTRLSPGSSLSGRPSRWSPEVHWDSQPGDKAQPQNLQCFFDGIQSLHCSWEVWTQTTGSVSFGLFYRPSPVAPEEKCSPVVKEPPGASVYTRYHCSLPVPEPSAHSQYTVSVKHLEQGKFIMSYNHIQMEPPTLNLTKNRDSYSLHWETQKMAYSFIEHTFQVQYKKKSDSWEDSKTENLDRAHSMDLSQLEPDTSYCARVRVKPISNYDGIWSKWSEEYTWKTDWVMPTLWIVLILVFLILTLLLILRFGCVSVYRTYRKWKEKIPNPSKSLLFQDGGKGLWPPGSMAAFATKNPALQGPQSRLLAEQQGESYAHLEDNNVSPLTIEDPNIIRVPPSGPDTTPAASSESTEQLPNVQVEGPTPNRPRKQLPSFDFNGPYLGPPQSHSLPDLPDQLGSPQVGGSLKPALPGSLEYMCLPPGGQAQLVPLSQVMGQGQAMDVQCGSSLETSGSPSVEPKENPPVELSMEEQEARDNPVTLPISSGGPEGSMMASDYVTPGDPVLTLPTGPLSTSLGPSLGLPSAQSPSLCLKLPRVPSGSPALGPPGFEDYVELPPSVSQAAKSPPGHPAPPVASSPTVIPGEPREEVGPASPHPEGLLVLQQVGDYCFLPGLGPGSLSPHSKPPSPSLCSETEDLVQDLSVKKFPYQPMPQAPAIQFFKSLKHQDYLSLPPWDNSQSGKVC

QPWEHVNAIQEAR {PEG4} DFLLVIP {PEG4} QPWEHVNAIQEAR {PEG4} DFLLVIP [Mimetic M7]
activity for the human receptor [1]: does not have activity
activity for the mouse receptor [2]: has activity

Source: patent publication US11267859B2, “GM-CSF mimetics and methods of making and using same” (The Regents of the University of Colorado, a body corporate, priority 2017, dated 2022)
